Reference: the supplement of paper PMC10307832

How the values were obtained:
Experiment in all cases: relative viability (nuclei count vs DMSO), 5 days (fraction); higher = more cells survive
Pemetrexed + Olaparib = compound: Nc1nc2[nH]cc(CCc3ccc(C(=O)N[C@@H](CCC(=O)O)C(=O)O)cc3)c2c(=O)[nH]1 [Pemetrexed] + O=C(c1cc(Cc2n[nH]c(=O)c3ccccc23)ccc1F)N1CCN(C(=O)C2CC2)CC1 [Olaparib] (partner 8 µM)
Outline: (§1)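 Lung cancer cell lines in 1536-well plates were dosed by pin tool the day after seeding, either with one drug alone or with a fixed anchor-drug dose plus five library-drug doses (not always all listed) in √10 steps. After 5 days, cells were fixed and their nuclei stained in one step (final 0.05% Triton X-100, 1% formaldehyde, 1 ug/ml Hoechst), then counted on 4× images. Relative viability is the nuclei count in treated wells divided by that in vehicle wells. Values are medians of duplicate plates.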

Pemetrexed + Lapatinib = compound: Nc1nc2[nH]cc(CCc3ccc(C(=O)N[C@@H](CCC(=O)O)C(=O)O)cc3)c2c(=O)[nH]1 [Pemetrexed] + CS(=O)(=O)CCNCc1ccc(-c2ccc3ncnc(Nc4ccc(OCc5cccc(F)c5)c(Cl)c4)c3c2)o1 [Lapatinib] (partner 2 µM)
Outline: as §1

Pemetrexed + Luminespib = compound: Nc1nc2[nH]cc(CCc3ccc(C(=O)N[C@@H](CCC(=O)O)C(=O)O)cc3)c2c(=O)[nH]1 [Pemetrexed] + CCNC(=O)c1noc(-c2cc(C(C)C)c(O)cc2O)c1-c1ccc(CN2CCOCC2)cc1 [Luminespib] (partner 0.01 µM)
Outline: as §1

Pemetrexed + Linsitinib = compound: Nc1nc2[nH]cc(CCc3ccc(C(=O)N[C@@H](CCC(=O)O)C(=O)O)cc3)c2c(=O)[nH]1 [Pemetrexed] + C[C@]1(O)C[C@@H](c2nc(-c3ccc4ccc(-c5ccccc5)nc4c3)c3c(N)nccn32)C1 [Linsitinib] (partner 1 µM)
Outline: as §1

Row | Cell Line | relative viability (Pemetrexed + Olaparib; first compound 0.002 µM) | relative viability (Pemetrexed + Olaparib; first compound 0.006325 µM) | relative viability (Pemetrexed + Olaparib; first compound 0.02 µM) | relative viability (Pemetrexed + Olaparib; first compound 0.06325 µM) | relative viability (Pemetrexed + Olaparib; first compound 0.2 µM) | relative viability (Pemetrexed + Lapatinib; first compound 0.002 µM) | relative viability (Pemetrexed + Lapatinib; first compound 0.006325 µM) | relative viability (Pemetrexed + Lapatinib; first compound 0.02 µM) | relative viability (Pemetrexed + Lapatinib; first compound 0.06325 µM) | relative viability (Pemetrexed + Lapatinib; first compound 0.2 µM) | relative viability (Pemetrexed + Luminespib; first compound 0.002 µM) | relative viability (Pemetrexed + Luminespib; first compound 0.006325 µM) | relative viability (Pemetrexed + Luminespib; first compound 0.02 µM) | relative viability (Pemetrexed + Luminespib; first compound 0.06325 µM) | relative viability (Pemetrexed + Luminespib; first compound 0.2 µM) | relative viability (Pemetrexed + Linsitinib; first compound 0.002 µM) | relative viability (Pemetrexed + Linsitinib; first compound 0.006325 µM) | relative viability (Pemetrexed + Linsitinib; first compound 0.02 µM) | relative viability (Pemetrexed + Linsitinib; first compound 0.06325 µM) | relative viability (Pemetrexed + Linsitinib; first compound 0.2 µM)
1 | NCI-H2009 | 0.648 | 0.689 | 0.714 | 0.651 | 0.661 | 0.745 | 0.871 | 0.999 | 0.905 | 0.915 | 0.94 | 0.995 | 1.04 | 0.991 | 1.03 | 0.979 | 1.1 | 1.3 | 1.17 | 1.11
2 | NCI-H661 | 0.741 | 0.743 | 0.71 | 0.759 | 0.679 | 0.731 | 0.503 | 0.593 | 0.417 | 0.586 | 0.958 | 0.882 | 0.934 | 0.884 | 0.85 | 0.632 | 0.515 | 0.637 | 0.505 | 0.561
3 | NCI-H520 | 0.282 | 0.385 | 0.356 | 0.335 | 0.319 | 0.803 | 0.886 | 0.833 | 0.829 | 0.838 | 0.215 | 0.234 | 0.223 | 0.261 | 0.2 | 0.946 | 0.911 | 0.926 | 1.09 | 0.956
4 | NCI-H2405 | 0.793 | 0.821 | 0.885 | 0.846 | 0.862 | 1.13 | 1.05 | 1.14 | 1.04 | 1.07 | 0.703 | 0.775 | 0.77 | 0.818 | 0.789 | 1.01 | 0.913 | 1.03 | 0.894 | 0.975
5 | LCLC-97TM1 | 0.442 | 0.327 | 0.457 | 0.426 | 0.411 | 1.32 | 0.653 | 1.05 | 1.21 | 0.353 | 0.906 | 0.74 | 0.81 | 0.761 | 0.65 | 0.151 | 0.152 | 0.184 | 0.133 | 0.174
6 | NCI-H727 | 0.617 | 0.654 | 0.692 | 0.795 | 0.689 | 0.802 | 0.825 | 0.634 | 0.844 | 0.773 | – | 0.255 | 0.346 | 0.689 | 0.506 | 0.154 | 0.272 | 0.218 | 0.332 | 0.264
7 | NCI-H2228 | 0.657 | 0.478 | 0.695 | 0.329 | 0.273 | 0.928 | 0.854 | 1.4 | 0.784 | 0.379 | 0.18 | – | 0.153 | 0.115 | 0.124 | 0.708 | 0.472 | 0.906 | 0.553 | 0.425
8 | LK-2 | 0.761 | 0.817 | 0.745 | 0.519 | 0.622 | 0.863 | 0.877 | 1.13 | 0.775 | 0.521 | 0.179 | 0.181 | 0.187 | 0.165 | 0.208 | 0.339 | 0.307 | 0.514 | 0.448 | 0.341
9 | PC-3 [JPC-3] | 1.03 | 1.18 | 1.19 | 1.14 | 1.08 | 0.423 | 0.502 | 0.501 | 0.471 | 0.451 | 0.678 | 0.79 | 0.702 | 0.715 | 0.758 | 0.876 | 0.923 | 0.951 | 0.981 | 0.944
10 | NCI-H596 | 0.747 | 0.73 | 0.761 | 0.668 | 0.514 | 1.03 | 1.09 | 1.07 | 0.82 | 0.644 | 0.97 | 1.01 | 1.14 | 0.945 | 0.679 | 1.08 | 0.983 | 1.04 | 0.908 | 0.54
11 | NCI-H460 | 0.237 | 0.35 | 0.484 | 0.437 | 0.116 | 0.892 | 0.856 | 0.963 | 0.276 | 0.0581 | 0.0265 | 0.0449 | 0.0346 | 0.0259 | 0.0265 | 0.75 | 0.697 | 0.782 | 0.166 | 0.0543
12 | NCI-H647 | 0.585 | 0.67 | 0.765 | 0.465 | 0.163 | – | 1.08 | 1.16 | 0.889 | 0.264 | 0.21 | 0.189 | 0.257 | 0.17 | 0.131 | – | 0.886 | 1.29 | 1.08 | 0.332
13 | NCI-H838 | 0.755 | 0.75 | 0.837 | 0.471 | 0.216 | 0.904 | 0.93 | 1.35 | 0.856 | 0.329 | 0.234 | 0.246 | 0.309 | 0.197 | 0.156 | 0.97 | 0.915 | 1.21 | 0.791 | 0.309
14 | PC-14 | 0.272 | 0.151 | 0.274 | 0.127 | 0.0867 | 0.194 | 0.271 | 0.38 | 0.291 | 0.223 | 0.15 | 0.133 | 0.151 | 0.136 | 0.137 | 0.922 | 0.901 | 1.01 | 0.759 | 0.184
15 | NCI-H358 | 0.582 | 0.622 | 0.66 | 0.397 | 0.151 | 0.4 | 0.4 | 0.441 | 0.311 | 0.276 | 0.268 | 0.368 | 0.227 | 0.367 | 0.146 | 0.641 | 0.666 | 0.514 | 0.261 | 0.282
16 | NCI-H1915 | 0.243 | 0.277 | 0.274 | 0.238 | 0.274 | 0.945 | 0.988 | 1.1 | 0.987 | 0.971 | 0.818 | 0.857 | 0.84 | 0.836 | 0.781 | 1.11 | 1.08 | 1.13 | 1.11 | 1.07
